Source: US12460184B2, “Cell primed with CTGF-D4 and insulin or IGF-1 and use in methods for cardiac tissue repair” (University of Vermont and State Agriculture College, priority 2013, dated 2025)

Tests used:
[1] = system: adult rat CPCs; test: CPC protection during hypoxia (1% oxygen, 48 hrs); type: cell-based; details: for CPC number after hypoxia: 30 ng/ml alone, control SFM with 1% BSA 9004 cells, mean±SD; for CdM-mediated protection of CPCs under hypoxic conditions: STAT3 inhibitor 10 μM added to CdM; for protection of CPCs against 48 hr of hypoxia: 1 ng/ml (each) in SFM
Procedure: (§1) Adult rat CPCs and cardiac fibroblasts were plated at 500 cells/cm^2 and cultured in their respective growth mediums. Three days after plating, the medium was removed, the wells were washed twice with PBS, and the cells were then exposed to CdM or to fresh serum-free medium (Alpha-MEM). For time course proliferation studies, CdM and serum-free medium were changed every 2 days. In signal transduction inhibitor studies, the following pharmacological inhibitors were used: AG490, inhibitor of Jak2/STAT3 pathway; Stattic, inhibitor of STAT3; LY294002, inhibitor of phosphatidylinositol 3-kinase (PI3K)/Akt pathway; and PD98059, inhibitor of extracellular signal-regulated kinase (ERK). All of the inhibitors were purchased from Calbiochem (Darmstadt, Germany) and were dissolved in dimethyl sulfoxide (DMSO). CPCs were cultured in CdM with the inhibitors or with the equivalent volume of DMSO as a control for 48 hrs. In cell protection studies, 3 days after plating, medium was replaced with either the CdM or serum-free medium and the cells were exposed to hypoxia in a specialized incubator (1% oxygen) for 48 hrs. The hypoxia incubator was a model that measured both CO2 and O2 (Thermo Electron, Forma Series II, model 3130). Oxygen was maintained at 1% by the injection of nitrogen gas and was monitored continuously.
Cell numbers were quantified by the fluorescent labeling of nucleic acids (CyQuant dye; Molecular Probes, Carlsbad, CA) and with a microplate fluorescence reader (FL×800; Bio-Tek Instruments Inc., Winooski, VT) set to 480 nm excitation and 520 nm emission. Each experiment was repeated a minimum of 3 times.

[2] = system: adult rat CPCs; test: Signal transduction inhibitor studies, CPCs cultured in CdM; type: cell-based; details: for cell number ratio to control cell number: CPCs in MSC CdM, 48 hrs, control CdM+DMSO = 100%
Procedure: as §1, with “continuously. Cell numbers were quantified by the fluorescent labeling of nucleic acids (CyQuant dye; Molecular Probes, Carlsbad, CA) and with a microplate fluorescence reader (FL×800; Bio-Tek Instruments Inc., Winooski, VT) set to 480 nm excitation and 520 nm emission. Each experiment was repeated a minimum of 3 times.” for “continuously.”

[3] = system: Akt; test: Immunoblotting for phosphorylated Akt in CPCs; type: cell-based, rat; details: recombinant human Insulin, 30 min incubation
Procedure: (§2) Cells were lysed in a buffer that consisted of 0.1% sodium dodecyl sulphate (SDS) and complete protease inhibitor cocktail (Roche, Basel, Switzerland) in PBS. Protein concentration was determined by the DC protein assay (Biorad, Hercules, CA). Twenty μg of protein was separated by SDS-PAGE. After electrophoresis, the gels were electroblotted to polyvinylidene difluoride (PVDF) membranes. All electrophoresis and electroblotting used Novex reagents and systems (Invitrogen, Carlsbad, Calif.). The blots were blocked for 1 hr at RT in 5% nonfat dry milk in PBS with 0.1% Tween 20 (PBST), washed 3×5 min in PBST, and incubated in primary antibodies in PBST with 5% BSA overnight at 4° C. After 3×5 min washes in PBST, the blots were incubated in secondary antibody conjugated to horseradish peroxidase conjugate (1:2000, Sigma) in PBST for 1 hr at RT. Unbound secondary antibody was removed and positive bands were detected with a chemiluminescent reaction. The primary antibodies for immunoblotting were Ki67 (clone SP6, 1:200, Abcam, Cambridge, MA); p-STAT3 (Tyr705, 1:1000), total STAT3 (1:1000), p-Akt (Ser 473, 1:1000)(Cell signaling); and β-actin (1:5000, Sigma).

[4] = system: STAT3; test: Immunoblotting for phosphorylated STAT3 in CPCs; type: cell-based, rat; details: 3 ng/ml, 30 min, SFM containing 1% BSA
Procedure: as §2

[5] = system: EPDCs; test: EPDC protection by CTGF-D4 under hypoxia (1% oxygen, 48 hr); type: cell-based, rat; details: blocker added
[6] = system: canonical Wnt pathway; test: Canonical Wnt pathway signaling in EPDCs (p-GSK3β, nuclear β-catenin); type: cell-based, rat
[7] = system: EPDCs; test: Ex vivo adhesion assay of EPDCs to fibronectin; type: cell-based; details: 40 ng/ml
[8] = system: EPDCs; test: Western blots for differentiation and adhesion/migration markers in EPDCs; type: cell-based; details: exposure to CTGF-D4

IGF-1: human Insulin-like growth factor 1
CPC number after hypoxia [1]: 14,894±559 cells

N#C/C(=C/c1ccc(O)c(O)c1)C(=O)NCc1ccccc1 [AG490]
cell number ratio to control cell number ([2]; 1 μM): 96.3±0.9%
cell number ratio to control cell number ([2]; 5 μM): 89.5±0.9%
CPC number ([2]; 10 μM, CPCs in CdM from p75MSCs or fibroblasts): inhibitory effect
cell number ratio to control cell number ([2]; 10 μM): 43.4±2.4%
CdM-mediated protection of CPCs under hypoxic conditions [1]: abolished CdM-mediated protection

Insulin: recombinant human Insulin, dimer of A-chain and B-chain
p-Akt in CPCs [3]: induced p-Akt in a dose-responsive manner
protection of CPCs against 48 hr of hypoxia [1]: did not protect CPCs
CPC number after hypoxia [1]: 13,507±1,473 cells
CPC survival and proliferation ([1]; recombinant human Insulin): increased also CPC survival and proliferation

O=[N+]([O-])c1ccc2c(c1)S(=O)(=O)C=C2 [Stattic, reference compound]
growth of CPCs in p75MSC CdM ([2]; 10 μM, vs DMSO vehicle, day 2 and 4): abolished
CdM-mediated protection of CPCs under hypoxic conditions [1]: abolished CdM-mediated protection

COc1cccc(-c2cc(=O)c3ccccc3o2)c1N [PD98059]
CPC proliferation in CdM ([2]; ERK inhibitor): did not diminish CPC proliferation

B1: human CTGF: connective tissue growth factor, full-length polypeptide SEQ ID NO: 1 (protein, listed as Homo sapiens)
chain: MTAASMGPVRVAFVVLLALCSRPAVGQNCSGPCRCPDEPAPRCPAGVSLVLDGCGCCRVCAKQLGELCTERDPCDPHKGLFCDFGSPANRKIGVCTAKDGAPCIFGGTVYRSGESFQSSCKYQCTCLDGAVGCMPLCSMDVRLPSPDCPFPRRVKLPGKCCEEWVCDEPKDQTVVGPALAAYRLEDTFGPDPTMIRANCLVQTTEWSACSKTCGMGISTRVTNDNASCRLEKQSRLCMVRPCEADLEENIKKGKKCIRTPKISKPIKFELSGCTSMKTYRAKFCGVCTDGRCCTPHRTTTLPVEFKCPDGEVMKKNMMFIKTCACHYNCPGDNDIFESLYYRKMYGDMA
p-STAT3 in CPCs [4]: significantly induced p-STAT3

B2: Dkk-1: a secreted inhibitor of Lrp6 (protein, UniProt O94907 32-266, looked up)
Dickkopf-related protein 1: TLNSVLNSNAIKNLPPPLGGAAGHPGSAVSAAPGILYPGGNKYQTIDNYQPYPCAEDEECGTDEYCASPTRGGDAGVQICLACRKRRKRCMRHAMCCPGNYCKNGICVSSDQNHFRGEIEETITESFGNDHSTLDGYSRRTTLSSKMYHTKGQEGSVCLRSSDCASGLCCARHFWSKICKPVLKEGQVCTKHRRKGSHGLEIFQRCYCGEGLSCRIQKDHHQASNSSRLHTCQRH
protection of EPDCs conferred by CTGF-D4 [5]: significantly reduced the protection

B3: CTGF-D4: recombinant human C-terminal (domain 4) CTGF peptide, SEQ ID NO: 2 (protein, listed as Homo sapiens)
chain: MGKKCIRTPKISKPIKFELSGCTSMKTYRAKFCGVCTDGRCCTPHRTTTLPVEFKCPDGEVMKKNMMFIKTCACHYNCPGDNDIFESLYYRKMYGDMA
protection of CPCs against 48 hr of hypoxia [1]: did not protect CPCs
signaling through the canonical Wnt pathway (p-GSK3β, nuclear β-catenin) [6]: promoted signaling through the canonical Wnt pathway
adhesion of EPDCs to fibronectin [7]: promoted adhesion of EPDCs to fibronectin
EMT-like differentiation (SMA, CD90, ETrB protein levels) [8]: promoted EMT-like differentiation
levels of Von Willebrand Factor [8]: did not seem to be affected
